Data on seven compounds can be found in patent US11230543B2, “Biaryl monobactam compounds and methods of use thereof for the treatment of bacterial infections” (priority 2015, dated 2022).

Counter-ions that a name gives are not always drawn.

Experiment [1] has as its system Klebsiella pneumoniae expressing KPC-1 (CL6569). Kind of experiment: Antibiotic activity: growth inhibitory concentration (OD600), Klebsiella pneumoniae CL6569. Type of experiment: cell-based. Conditions: lowest concentration inhibiting 95% of bacterial growth; in the presence of β lactamase inhibitor Relebactam 4 μg/mL; 35±2° C. for 22 hours; tested range 100 μM to 0.098 μM. The protocol:
(§1) Antibiotic Activity: Determination of Growth Inhibitory Concentration
(§2) The concentrations of compounds required to inhibit the growth of various strains of bacteria were determined in an assay that assessed bacterial growth by measuring optical density at 600 nm (OD600). The bacterial strains tested included the clinical strains Escherichia coli expressing NDM-1 (CLB30016), Klebsiella pneumoniae expressing KPC-1 (CL6569), Acinetobacter baumannii expressing TEM-1, AmpC, and Oxa-24/40 (CL6188) and Pseudomonas aeruginosa expressing AmpC (CL5701). All compounds were tested in the presence of a β lactamase inhibitor (BLi, Relebactam) in 384-well microplates. The clinical strains were stored as frozen single use stocks, thawed and diluted into 1.1× cation-adjusted Mueller-Hinton II broth to achieve approximately 2×10^5 CFU/mL. Test compounds were dissolved in DMSO and diluted 1:50 in the assay, resulting in a final concentration range of 100 μM to 0.098 μM. On the day of the assay, 1 μL of test compound was added to the plate followed by 4 μL of 50 μg/mL BLi in MOPS buffer and 45 μL of diluted bacteria. Plates were centrifuged at 1000 rpm for 30 seconds, shaken at approximately 800 rpm for 1 minute, and incubated at 35±2° C. for 22 hours. The concentration of BLi used in the assay was 4 μg/mL. At the end of the incubation, absorbance at 600 nm was determined using a spectrophotometer. Inhibition was quantitated by identifying the lowest concentration of test compound that was required to inhibit 95% of the growth of the bacteria. The results for Examples 1-126 are reported in Table I, expressed as the concentration of compound that inhibited 95% of bacterial growth (Minimum Inhibitory Threshold Concentration; MITC95).

In experiment [2] the test system is Pseudomonas aeruginosa expressing AmpC (CL5701). Put plainly: Antibiotic activity: growth inhibitory concentration (OD600), Pseudomonas aeruginosa CL5701. It is filed as cell-based. As to conditions: lowest concentration inhibiting 95% of bacterial growth; in the presence of β lactamase inhibitor Relebactam 4 μg/mL; 35±2° C. for 22 hours; tested range 100 μM to 0.098 μM. The protocol: as §1, §2

As for `C[n+]1cc(-c2ccc(OC[C@H](O/N=C(\C(=O)N[C@@H]3C(=O)N(OS(=O)(=O)[O-])C3(C)C)c3csc(N)n3)C(=O)O)cc2)ccc1CNCCN` [Example 78, (S)-3-((Z)-2-(((S)-2-(4-(6-(((2-aminoethyl)amino)methyl)-1-methylpyridin-1-ium-3-yl)phenoxy)-1-carboxyethoxy)imino)-2-(2-aminothiazol-4-yl)acetamido)-2,2-dimethyl-4-oxoazetidin-1-yl sulfate], the “KP_CL6569 MITC95” value in experiment [1] amounted to 0.7813 µM. Besides, the “PA_CL5701 MITC95” value in experiment [2] turned out to be 12.5 µM.

With `C[n+]1cc(-c2ccc(OC[C@H](O/N=C(\C(=O)N[C@@H]3C(=O)N(OS(=O)(=O)O)C3(C)C)c3csc(N)n3)C(=O)O)c(F)c2)cn1CCCN` [Example 15, 1-(3-aminopropyl)-4-(4-((S)-2-((((Z)-1-(2-aminothiazol-4-yl)-2-(((S)-2,2-dimethyl-4-oxo-1-(sulfooxy)azetidin-3-yl)amino)-2-oxo-ethylidene)amino)oxy)-2-carboxyethoxy)-3-fluorophenyl)-2-methyl-1H-pyrazol-2-ium, TFA salt (1:1)], the “KP_CL6569 MITC95” value in experiment [1] was determined as 0.3906 µM. In addition, the “PA_CL5701 MITC95” value in experiment [2] amounted to 6.25 µM.

`C[n+]1cc(-c2ccc(OC[C@H](O/N=C(/C(=O)N[C@@H]3C(=O)N(OS(=O)(=O)[O-])C3(C)C)c3csc(N)n3)C(=O)O)cc2)cn1CCCNCCN` [Example 102, (S)-3-((E)-2-(((S)-2-(4-(1-(3-((2-aminoethyl)amino)propyl)-2-methyl-1H-pyrazol-2-ium-4-yl)phenoxy)-1-carboxyethoxy)imino)-2-(2-aminothiazol-4-yl)acetamido)-2,2-dimethyl-4-oxoazetidin-1-yl sulfate]: in experiment [1], the “KP_CL6569 MITC95” value was determined as 0.125 µM. The “PA_CL5701 MITC95” value in experiment [2] is 3.125 µM.

Regarding `C[n+]1cc(-c2ccc(NCC(O/N=C(\C(=O)N[C@@H]3C(=O)N(OS(=O)(=O)[O-])C3(C)C)c3csc(N)n3)C(=O)O)cc2)cn1CCCN` (stereo partly drawn) [Example 91, (3S)-3-(2-((2-((4-(1-(3-aminopropyl)-2-methyl-1H-pyrazol-2-ium-4-yl)phenyl)amino)-1-carboxyethoxy)imino)-2-(2-aminothiazol-4-yl)acetamido)-2,2-dimethyl-4-oxoazetidin-1-yl sulfate], the “KP_CL6569 MITC95” value in experiment [1] was determined as 0.7813 µM. Also, in experiment [2], the “PA_CL5701 MITC95” value was determined as 12.5 µM.

In the case of `C[n+]1c(N)c(-c2ccc(OC[C@H](O/N=C(\C(=O)N[C@@H]3C(=O)N(OS(=O)(=O)[O-])C3(C)C)c3nc(N)sc3Cl)C(=O)O)cc2F)cn1CCCN` [Example 48, (S)-3-((Z)-2-(((S)-2-(4-(3-Amino-1-(3-aminopropyl)-2-methyl-1H-pyrazol-2-ium-4-yl)-3-fluorophenoxy)-1-carboxyethoxy)imino)-2-(2-amino-5-chlorothiazol-4-yl)acetamido)-2,2-dimethyl-4-oxoazetidin-1-yl sulfate], in experiment [1], the “KP_CL6569 MITC95” value turned out to be 0.7813 µM. The “PA_CL5701 MITC95” value in experiment [2] was determined as 6.25 µM.

Regarding `CC1(C)[C@H](NC(=O)/C(=N\O[C@@H](COc2ccc(-c3cc(CN)n(CCCN)n3)cc2)C(=O)O)c2csc(N)n2)C(=O)N1OS(=O)(=O)O` [Example 126, (S)-3-(4-(5-(Aminomethyl)-1-(3-aminopropyl)-1H-pyrazol-3-yl)phenoxy)-2-((((Z)-1-(2-aminothiazol-4-yl)-2-(((S)-2,2-dimethyl-4-oxo-1-(sulfooxy)azetidin-3-yl)amino)-2-oxoethylidene)amino)oxy)propanoic acid], in experiment [1], the “KP_CL6569 MITC95” value was 0.39 µM. Further, the “PA_CL5701 MITC95” value in experiment [2] is 3.125 µM.

Turning to `CC1(C)[C@H](NC(=O)/C(=N\O[C@@H](COc2ccc(-c3cn(C[C@@H](O)CN)[n+](CC4CNC4)c3)cc2)C(=O)O)c2csc(N)n2)C(=O)N1OS(=O)(=O)[O-]` [Example 52, (S)-3-((Z)-2-(((S)-2-(4-(1-((S)-3-Amino-2-hydroxypropyl)-2-(azetidin-3-ylmethyl)-1H-pyrazol-2-ium-4-yl)phenoxy)-1-carboxyethoxy)imino)-2-(2-aminothiazol-4-yl)acetamido)-2,2-dimethyl-4-oxoazetidin-1-yl sulfate], the “KP_CL6569 MITC95” value in experiment [1] was found to be 0.1953 µM. In addition, in experiment [2], the “PA_CL5701 MITC95” value came to 1.563 µM.
